Reference: patent US20130022641A1, “Anti-Tumor Agent and Immunostimulating Agent” (ORION BREWERIES, LTD., priority 2005, published 2013)

Columns and labels:
Assay type in all cases: in vivo, C57BL/6 mice
[1] = tested on: INF-γ; test: Level of INF-γ in serum by ELISA; details: 2 μg/mouse αGalcer, normal mouse about 40 μg/ml, FIG. 14
Description: Mice prepared in the third embodiment were used. After about 1 ml of blood had been collected from each mouse over time, serum was separated. The level of INF-γ in such serum was measured in accordance with the ELISA test. In regards to the ELISA test, a BD Opt EIA set (Pharmingen) was used, and the method was subject to the attached protocol.

[2] = tested on: T cells; test: Annexin V detection of apoptosis in liver T cell fractions (control); details: 2 μg/mouse; 24 hours after dosing
Description: (§1) The basic method for the experiment is the same as that of the third embodiment. C57BL/6 8th-week mice were used. […] And 2 μg/mouse of αGalcer was likewise administered. After 24 hours following the dosing, lymphocytes had been separated from the livers of the mice over time. Triple labeling immunostaining was undertaken by fluorescently-labeled monoclonal antibody based on […] anti-CD3 antibody (Pharmingen) and PE-labeled anti-NK1.1 antibody (Pharmingen) for detection of NKT cells (CD3^+NK1.1^+), and FITC labeled Annexin V (Pharmingen) for detection of apoptosis cells. The method for immunostaining was subject to that of Non-Patent Document 1. Next, PerCP and PE were detected via flow cytometric analysis (FACSCalibur, Becton-Dickinson). Based on the fluorescence intensity thereof, NKT cells fractions (areas shown in c of FIG. 13) were obtained. […] According to the embodiment, cells which caused apoptosis within the fractions were detected via measurement of fluorescence intensity of FITC in such fractions. […]
(§2) Histograms of mouse NKT cell fractions and T cell fractions of unprocessed normal mouse cells are shown (A and D). […] The fluorescence intensity of fluorescent substance C is shown on the horizontal axis and the number of cells (in units) is shown on the vertical axis for each profile. […]

[3] = tested on: NKT cells (CD3+NK1.1+); test: Annexin V detection of apoptosis in liver NKT cell fractions; details: 2 μg/mouse; 24 hours after dosing; normal mice peak around 10
Description: as §1, §2

[4] = tested on: NKT cells of the liver; test: Flow cytometric analysis of liver NKT cells after intraperitoneal administration; details: 2 μg/mouse, abdominal cavity
Description: C57BL/6 8th-week mice were used. […] Additionally, individuals that received 2 μg/mouse were used as positive controls. After dosing, lymphocytes were separated from the livers of the mice over time. Double labeling immunostaining was undertaken with 2 types of h monoclonal antibodies. FITC-labeled anti-CD3 (Phatrningen) and PE-labeled anti-NK1.1 (Pharmingen). Thereafter, flow cytometric analysis (FACSCalibur, Becton-Dickinson) was undertaken for dynamic states of NKT cells. In addition, a method of lymphocyte separation from the livers and the immunostaining method were subject to the methods of Non-Patent Document 7.
Cytograms show fluorescence intensities for FITC-labeled anti-CD3 on the horizontal axis and PE-labeled anti-NK1.1 antibody on the vertical axis in a log scale fashion. The larger the fluorescence intensities for FITC, the greater the number of CD3 molecules on the surfaces of cells. And the larger the PE fluorescence intensities, the greater the number of NK1.1 molecules on the measured surfaces of cells. […] Additionally, numeric values within the fractions represent the percentages of cells included in such fractions relative to all measured cells.

[5] = tested on: GPT; test: Transaminase values in the serums (GPT), liver damage; details: 2 μg/mouse, serum, normal mice about 11 IU/L
Description: The mice prepared in the third embodiment were used. After collecting about 1 ml of blood from each mouse over time, serums were separated. Transaminase values in the serums (GPT) were measured using of a Transaminase CII Test Wake (Wake Pure Chemical Industries, Ltd) as an extracorporeal diagnostic kit. The method for measurement was subject to the protocol attached with the kit. In addition, generally speaking, red cells of mice are easily hemolyzed. Thus. GOT values regarding which errors easily occur to results of measurements are not presented herein.
Herein, first, brief explanations are given in regards to GPT in the serums. GPT normally functions in liver cells. Due to destruction of […] caused by liver damage, such as hepatitis and the like, GPT leaks into the blood. Thus, increase of GPT values in the blood is an index of liver damage. Generally, it is understood that liver damage, such as hepatitis and the like, exists when the figures are greater than 100 IU (international unit)/L (liter).

CCCCCCCCCCCCCCCCCCCCCCCCCC(=O)N[C@@H](CO[C@H]1O[C@H](CO)[C@H](O)[C@H](O)[C@H]1O)[C@H](O)[C@H](O)CCCCCCCCCCCCCC [αGalCer, a-Galactosyl ceramide]
level of INF-γ in the blood [1]: about 3,000 μg/ml
apoptosis induction in T cells [2]: Apoptosis induction could not be recognized
peak of Annexin V fluorescence intensity in NKT cell fraction [3]: ~200
NKT cells in the liver ([4]; 24 hours following administration): such tendency had not changed
NKT cells in the liver ([4]; within 12 hours following dosing): most NKT cells in the liver disappeared
GPT values ([5]; after 12 hours): 116 IU/L
GPT values ([5]; after 24 hours): 183 IU/L
